Measured values published in paper PMC8160793, “Potent Antimicrobial and Antibiofilm Activities of Feleucin-K3 Analogs Modified by α-(4-Pentenyl)-Ala against Multidrug-Resistant Bacteria” (Biomolecules, 2021).
In brackets after ≈: the same amount, converted by molar mass. Like-named read-outs stand apart in the source and are kept apart here. Square brackets hold non-standard residues; d marks the D form. Ends that are not written are not given here. Peptide text beside a SMILES is read from it. ξ: configuration not given here. ξαMeGly(pent-4-enyl) = C=CCCCC(C)(N)C(=O)O

Legend:
S. aureus ATCC 25923 = type: cell-based, Staphylococcus aureus
Description: (§1) The minimum inhibitory concentration (MIC) of the Feleucin-K3 analogs was tested by the broth microdilution method. Sensitive bacteria and drug-resistant bacteria were diluted to 1 × 10^6 CFU/mL, according to the McFarland standards. Bacterial suspension and peptide solutions (8–128 μg/mL) were incubated at 37 °C for 18 h. The minimum concentration without obvious bacterial growth was the MIC of the peptides. The stability of the analogs in a physiological salt environment was also investigated. In brief, salt powder (450-mM NaCl) was dissolved in deionized water, and the following investigational steps were the same as those described before. The above steps were repeated several times, until the same value was obtained three times.

E. coli ATCC 25922 = type: cell-based
Description: as §1

A. baumannii ATCC 19606 = type: cell-based, Acinetobacter baumannii
Description: as §1

P. aeruginosa ATCC 27853 = type: cell-based, Pseudomonas aeruginosa
Description: as §1

[1] = broth microdilution, 1 × 10^6 CFU/mL, 37 °C, 18 h

Compound	MIC, S. aureus ATCC 25923 (S. aureus ATCC 25923; [1])	MIC, E. coli ATCC 25922 (E. coli ATCC 25922; [1])	MIC, A. baumannii ATCC 19606 (A. baumannii ATCC 19606; [1])	MIC, P. aeruginosa ATCC 27853 (P. aeruginosa ATCC 27853; [1])	MIC, S. aureus ATCC 25923 (S. aureus ATCC 25923; ATCC 25923, 18 h)	MIC, E. coli ATCC 25922 (E. coli ATCC 25922; ATCC 25922, 18 h)	MIC, A. baumannii ATCC 19606 (A. baumannii ATCC 19606; ATCC 19606, 18 h)	MIC, P. aeruginosa ATCC 27853 (P. aeruginosa ATCC 27853; ATCC 27853, 18 h)
GIGKFLHSAKKFGKAFVGEIMNS [Magainin 2, reference compound]	> 256 µg/mL	64 µg/mL	16 µg/mL	256 µg/mL	–	–	–	–
C=CCCCC(C)(NC(=O)[C@H](CCCCN)NC(=O)[C@@H](N)CC(C)C)C(=O)N[C@@H](CC(C)C)C(=O)N[C@@H](CCCCN)C(=O)N[C@@H](CCCCN)C(=O)N[C@@H](CC(C)C)C(=O)N[C@@H](CC(C)C)C(N)=O (stereo partly drawn) [Feleucin-K64] (H-LK[ξαMeGly(pent-4-enyl)]LKKLL-NH2)	–	–	–	–	16 µg/mL (≈ 16.1 µM)	16 µg/mL (≈ 16.1 µM)	64 µg/mL (≈ 64.4 µM)	4 µg/mL (≈ 4.03 µM)
LKLLKKLL-NH2 [Feleucin-K63]	–	–	–	–	>128 µg/mL	>128 µg/mL	>128 µg/mL	64 µg/mL
